Assay results taken from US8377989B2, “Room temperature stable non-crystalline aspirin and method for the preparation thereof” (priority 2007, dated 2013).

Tests used:
[1] = Storage stability of the non-crystalline form at room temperature (appearance, PXRD); format: physicochemical; conditions: for time the non-crystalline glass form remained stable: room temperature
Text: Within an hour of the evaporative desolvation process following the laser treatment, the system stabilized with 80 percent or more of the mass of the sample cured to a clear non-crystalline glass rather than a crystalline form.
After the 6 months of storage, the laser treated aspirin was studied by PXRD.
(§1) Subsequent tests with the protocol of Example 2 were repeated with the order of long and short wavelengths reversed, i.e., short wavelength followed by long wavelength cycled sequenced laser treatment. This protocol also produced up to 90 percent yields of room temperature stable non-crystalline glass aspirin, which remained stable at room temperature for over 23 months. The Petri dish containing such a sample of non-crystalline aspirin was placed on edge for a period of about six weeks.

[2] = Flow test: Petri dish with sample placed on edge; format: physicochemical; conditions: Example 3; Petri dish on edge for about six weeks
Text: as §1

[3] = 298K; vitrified by melting and cooling or ball-milling; cited from earlier work
[4] = 100 K (−173° C.) versus ambient conditions; cited from earlier work

CC(=O)Oc1ccccc1C(=O)O [non-crystalline aspirin, acetylsalicylic acid]
crystallization on further storage ([1]; Example 2, additional six months of storage after the first 6 months): No crystallization has been observed
storage period with no change in appearance of the sample ([1]; Example 2, room temperature of about 18° to 22° C., about 30 to 40 percent humidity): over 6 months
time remained stable at room temperature ([1]; Example 3, short wavelength followed by long wavelength laser treatment): over 23 months
time the non-crystalline glass form remained stable [1]: stable at room temperature once the solvent had evaporated
time the non-crystalline glass form remained stable ([1]; listed as glass aspirin): stable for up to about a year at room temperature
time the non-crystalline glass form remained stable ([1]; listed as non-crystalline glass form): stable at room temperature for at least up to about a year
time the non-crystalline form remained stable ([1]; temperature of about 20° to 30° C.): stable at a temperature of about 20° to 30 °C for at least about a year
flowing of the sample [2]: No flowing of the sample was observed

CC(=O)Oc1ccccc1C(=O)O [vitreous aspirin]
stability against crystallization [3]: did not crystallize for four to five days

CC(=O)Oc1ccccc1C(=O)O [Aspirin Form II]
stability of the polymorphic form [4]: kinetically stable at 100 K (−173° C.), but converts back to Form I at ambient conditions
